This passage reports IC50 results from patent US4997847A, “Biologically active compounds” (Smith Kline & French Laboratories Limited, priority 1987, dated 1991).

This experiment concerns the target T1, TXA2 receptors (Homo sapiens, UniProt P21731).
T1 construct: to Washed Human Platelets; endogenous in cells; host or cells: washed human platelets
T1 sequence (P21731 1-343): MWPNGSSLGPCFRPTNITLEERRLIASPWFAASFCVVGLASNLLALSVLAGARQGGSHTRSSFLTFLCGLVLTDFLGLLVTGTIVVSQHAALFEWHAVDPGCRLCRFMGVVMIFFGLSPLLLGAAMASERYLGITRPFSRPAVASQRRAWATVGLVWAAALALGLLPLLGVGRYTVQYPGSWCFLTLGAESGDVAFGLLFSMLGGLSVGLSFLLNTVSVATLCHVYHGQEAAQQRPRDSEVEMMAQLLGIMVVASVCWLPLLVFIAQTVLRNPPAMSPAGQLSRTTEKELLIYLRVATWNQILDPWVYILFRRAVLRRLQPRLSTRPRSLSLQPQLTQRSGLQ
The experiment in a line: Human platelet binding assay: inhibition of [^125 I]PTA-OH binding to washed human platelets. Conditions: [^125 I]PTA-OH as receptor ligand, 50% inhibition of specific binding. An excerpt:
As indicated above, compounds of the formula (I) have biological activity that is indicative of an ability to antagonise TXA2 receptors.
The platelet binding assay used was essentially the method described by Mais et al, J. Pharm. Exp. Ther., 1985, 235(3), 729-734 where [^125 I]PTA-OH was used as the receptor ligand.
The IC50 values represent the concentration which produces a 50% inhibition of specific [^125 I]PTA-OH binding.
The activities of the compounds of the present invention in the assay are described in Example 33.
Inhibition of [^125 I]PTA-OH Binding
to Washed Human Platelets
Take `O=C(O)CCCC#CCNS(=O)(=O)c1ccc(Cl)cc1` [Example 8, 7-(4-Chlorobenzenesulphonamido)hept-5-ynoic Acid]: the IC50 is 5400 nM.
Regarding `CC(C)(CCCCCNS(=O)(=O)c1ccc(Cl)cc1)CC(=O)O` [Example 12, 8-(4-Chlorobenzenesulphonamido)-3,3-dimethyloctanoic Acid], the IC50 is 600 nM.
The compound `O=C(O)CCCCCCCNS(=O)(=O)c1ccc(Cl)c(Cl)c1` [Example 18, 8-(3,4-Dichlorobenzenesulphonamido)octanoic Acid] gave an IC50 of 70 nM.
Compound `O=C(O)CCCCCNS(=O)(=O)c1ccccc1` [Example 4, 6-(Benzenesulphonamido)hexanoic Acid] registered an IC50 of 61000 nM.
`O=C(O)CCCCCCCNS(=O)(=O)c1cccc(Cl)c1` [Example 14, 8-(3-Chlorobenzenesulphonamido)octanoic Acid] showed an IC50 of 160 nM.
To `O=C(O)CCCCCCCNS(=O)(=O)c1ccc([N+](=O)[O-])cc1` [Example 15, 8-(4-Nitrobenzenesulphonamido)octanoic Acid] belongs 110 nM; to `CC(C)(CCCCCNS(=O)(=O)c1ccc(Cl)cc1)C(=O)O` [Example 31, 7-(4-Chlorophenylsulphonamido)-2,2-dimethylheptanoic Acid], 330 nM; to `CC(C)(CCCCCCNS(=O)(=O)c1ccc(Cl)cc1)C(=O)O` [Example 5, 8-(4-Chlorobenzenesulphonamido)-2,2-dimethyloctanoic Acid], 150 nM.
As for `O=C(O)CCCCCCCNS(=O)(=O)c1ccc(Br)cc1` [Example 16, 8-(4-Bromobenzenesulphonamido)octanoic Acid], the half-maximal inhibitory concentration (IC50) turned out to be 20 nM.
To `COc1ccc(S(=O)(=O)NCCCCCCCC(=O)O)cc1` [Example 17, 8-(4-Methoxybenzenesulphonamido)octanoic Acid] belongs 300 nM; to `O=C(O)CCCCCCNS(=O)(=O)c1ccccc1` [Example 1, 7-(Benzenesulphonamido)heptanoic Acid], 2300 nM; to `O=C(O)CCCCCCCNS(=O)(=O)c1ccccc1` [Example 2, 8-(Benzenesulphonamido)octanoic Acid], 290 nM.
Compound `O=C(O)CCCCCCCNS(=O)(=O)c1ccc(F)cc1` [Example 25, 8(4-Fluorobenzenesulphonamido)octanoic Acid] showed a 50% inhibitory concentration (IC50) of 220 nM.
`Cc1ccc(S(=O)(=O)NCCCCCCCC(=O)O)cc1` [Example 21, 8-(4-tolylsulphonamido)octanoic acid] yielded an IC50 of 75 nM.
Regarding `O=C(O)CCCCCCNS(=O)(=O)c1ccc(Cl)cc1` [Example 13, 7-(4-Chlorobenzenesulphonamido)heptanoic Acid], the IC50 turned out to be 270 nM.
The compound `O=C(O)CCCCCCCCCCNS(=O)(=O)c1ccc(Cl)cc1` [Example 19, 11-(4-Chlorobenzenesulphonamido)undecanoic Acid] returned an IC50 of 600 nM.
The compound `O=C(O)CCC/C=C\CNS(=O)(=O)c1ccc(Cl)cc1` [Example 9, (Z)-7-(4-Chlorobenzenesulphonamido)hept-5-enoic Acid] had an IC50 of 1600 nM.
Take `CC(C)(CCCCCCCNS(=O)(=O)c1ccc(Cl)cc1)C(=O)O` [Example 30, 9-(4-Chlorophenylsulphonamido)-2,2-dimethylnonanoic Acid]: the IC50 was determined as 360 nM.
In turn, `O=C(O)CCCCCCCCCNS(=O)(=O)c1ccc(Cl)cc1` [Example 24, 10-(4-Chlorobenzenesulphonamido)decanoic Acid] returned an IC50 of 60 nM.
The same measure for `O=C(O)CCCCCCCCCCCNS(=O)(=O)c1ccc(Cl)cc1` [Example 11, 12-(4-Chlorobenzenesulphonamido)-dedecanoic Acid]: 7000 nM.
As to `CC(C)(CCCCCCCCNS(=O)(=O)c1ccc(Cl)cc1)C(=O)O` [Example 10, 2,2-Dimethyl-10-(4-chlorobenzenesulphonamido)decanoic Acid], the IC50 amounted to 470 nM.
Consider `O=C(O)CCCCCCCNS(=O)(=O)c1ccc(Cl)s1` [Example 29, 8-(5-Chloro-2-thienylsulphonamido)octanoic Acid], for which the IC50 was found to be 40 nM.
In turn, `O=C(O)CCCCCCCNS(=O)(=O)c1cc(Cl)sc1Cl` [Example 32, 8-(2,5-Dichloro-3-thienylsulphonamido)octanoic Acid] registered an IC50 of 650 nM.
Compound `O=C(O)CCCCCCCCNS(=O)(=O)c1ccc(Br)cc1` [Example 26, 9-(4-Bromobenzenesulphonamido)nonanoic Acid] yielded an IC50 of 40 nM.
Compound `O=C(O)CCCCCCCCNS(=O)(=O)c1ccc(Cl)cc1` [Example 6, 9-(4-Chlorobenzenesulphonamido)nonanoic Acid] yielded an IC50 of 18 nM.
As for `O=C(O)CCCCCCCNS(=O)(=O)c1ccc(Cl)cc1` [Example 3, 8-(4-Chlorobenzenesulphonamido)octanoic Acid], the IC50 turned out to be 30 nM.
To `O=C(O)CCCCCCCCNS(=O)(=O)c1ccccc1` [Example 7, 9-(Benzenesulphonamido)nonanoic Acid] belongs 280 nM; to `O=C(O)CCCCCCCCNS(=O)(=O)c1cccc(Cl)c1` [Example 23, 9-(3-Chlorobenzenesulphonamido)nonanoic Acid], 250 nM; to `O=C(O)CCCCCCCCCCNS(=O)(=O)c1cccc(Cl)c1` [Example 20, 11-(3-Chlorobenzenesulphonamido)undecanoic Acid], 1900 nM.
